# Test results from patent US11083709B2, “Compounds, compositions, and methods of increasing CFTR activity” (Proteostasis Therapeutics, Inc., priority 2015, dated 2021).
# Biological target: T1, ΔF508-CFTR (Homo sapiens, UniProt P13569, DEL508-508)
# T1 construct: primary lung epithelial cells (hBEs) homozygous for the Cystic Fibrosis-causing ΔF508 mutation; endogenous in cells; host or cells: primary lung epithelial cells (hBEs) homozygous for ΔF508
# Test: hBE equivalent current (Ieq) assay, primary lung epithelial cells homozygous for ΔF508
# Type: cell-based
# Conditions: 24 h treatment; for leq: activity of compound with VX-809, % of VX-809 (AUC of equivalent chloride current): compound at 10 uM and VX-809 at 1 uM, relative to VX-809 (1 uM); for leq: activity relative to VX-809 (AUC of equivalent chloride current): compound alone run at 10 uM, relative to VX-809 at 1 uM
# Description: Primary lung epithelial cells homozygous for the Cystic Fibrosis-causing ΔF508 mutation were differentiated for a minimum of 4 weeks in an air-liquid interface on Costar 24 well HTS filter plates prior to the equivalent current (Ieq) measurements. Cells were apically mucus-washed for 30 minutes 24h prior to treatment with compounds. The basolateral media was removed and replaced with media containing the compound of interest diluted to its final concentration from DMSO stocks. Treated cells were incubated at 37° C. and 5% CO2 for 24 hours. At the end of the treatment period, the media was changed to the Ieq experimental solution for 30 minutes before the experiment and plates are maintained in a CO2-free incubator during this period. The plates containing the cells were then placed in pre-warmed heating blocks at 36° C.±0.5 for 15 minutes before measurements are taken. The transepithelial voltage (VT) and conductance (GT) were measured using a custom 24 channel current clamp (TECC-24) with 24 well electrode manifold. The Ieq assay measurements were made following additions with standardized time periods: • 1. The baseline VT and GT values were measured for approximately 20 minutes. • 2. Benzamil was added to block ENaC for 15 minutes. • 3. Forskolin plus VX-770 (ivacaftor) were added to maximally activate ΔF508-CFTR for 27 minutes. • 4. Bumetanide was added to inhibit the NaK2Cl cotransporter and shut-off secretion of chloride.
# The activity data captured was the area under the curve (AUC) for the traces of the equivalent chloride current. The AUC was collected from the time of the forskolin/VX-770 addition until the inhibition by bumetanide addition. Correction in response to compound treatment was scored as the increase in the AUC for compound-treated samples over that of vehicle-treated samples.
# The results are shown below in Table 2. ++ indicates activity ≥25% run at 10 uM of VX-809 at 1 uM, + indicates activity 10 to <25% run at 10 uM of VX-809 at 1 uM, ** indicates activity ≥200% of VX-809 (1 uM) with compound at 10 uM and VX-809 at 1 uM; * indicates activity 100-200% of VX-809 (1 uM) with compound at 10 uM and VX-809 at 1 uM. ^## indicates activity ≥200% of VX-809 (3 uM) with compound at 10 uM and VX-809 at 3 uM; ^# indicates activity 100-200% of VX-809 (3 uM) with compound at 10 uM and VX-809 at 3 uM.
# T1 sequence (P13569 with tags, fused parts or gaps DEL508-508): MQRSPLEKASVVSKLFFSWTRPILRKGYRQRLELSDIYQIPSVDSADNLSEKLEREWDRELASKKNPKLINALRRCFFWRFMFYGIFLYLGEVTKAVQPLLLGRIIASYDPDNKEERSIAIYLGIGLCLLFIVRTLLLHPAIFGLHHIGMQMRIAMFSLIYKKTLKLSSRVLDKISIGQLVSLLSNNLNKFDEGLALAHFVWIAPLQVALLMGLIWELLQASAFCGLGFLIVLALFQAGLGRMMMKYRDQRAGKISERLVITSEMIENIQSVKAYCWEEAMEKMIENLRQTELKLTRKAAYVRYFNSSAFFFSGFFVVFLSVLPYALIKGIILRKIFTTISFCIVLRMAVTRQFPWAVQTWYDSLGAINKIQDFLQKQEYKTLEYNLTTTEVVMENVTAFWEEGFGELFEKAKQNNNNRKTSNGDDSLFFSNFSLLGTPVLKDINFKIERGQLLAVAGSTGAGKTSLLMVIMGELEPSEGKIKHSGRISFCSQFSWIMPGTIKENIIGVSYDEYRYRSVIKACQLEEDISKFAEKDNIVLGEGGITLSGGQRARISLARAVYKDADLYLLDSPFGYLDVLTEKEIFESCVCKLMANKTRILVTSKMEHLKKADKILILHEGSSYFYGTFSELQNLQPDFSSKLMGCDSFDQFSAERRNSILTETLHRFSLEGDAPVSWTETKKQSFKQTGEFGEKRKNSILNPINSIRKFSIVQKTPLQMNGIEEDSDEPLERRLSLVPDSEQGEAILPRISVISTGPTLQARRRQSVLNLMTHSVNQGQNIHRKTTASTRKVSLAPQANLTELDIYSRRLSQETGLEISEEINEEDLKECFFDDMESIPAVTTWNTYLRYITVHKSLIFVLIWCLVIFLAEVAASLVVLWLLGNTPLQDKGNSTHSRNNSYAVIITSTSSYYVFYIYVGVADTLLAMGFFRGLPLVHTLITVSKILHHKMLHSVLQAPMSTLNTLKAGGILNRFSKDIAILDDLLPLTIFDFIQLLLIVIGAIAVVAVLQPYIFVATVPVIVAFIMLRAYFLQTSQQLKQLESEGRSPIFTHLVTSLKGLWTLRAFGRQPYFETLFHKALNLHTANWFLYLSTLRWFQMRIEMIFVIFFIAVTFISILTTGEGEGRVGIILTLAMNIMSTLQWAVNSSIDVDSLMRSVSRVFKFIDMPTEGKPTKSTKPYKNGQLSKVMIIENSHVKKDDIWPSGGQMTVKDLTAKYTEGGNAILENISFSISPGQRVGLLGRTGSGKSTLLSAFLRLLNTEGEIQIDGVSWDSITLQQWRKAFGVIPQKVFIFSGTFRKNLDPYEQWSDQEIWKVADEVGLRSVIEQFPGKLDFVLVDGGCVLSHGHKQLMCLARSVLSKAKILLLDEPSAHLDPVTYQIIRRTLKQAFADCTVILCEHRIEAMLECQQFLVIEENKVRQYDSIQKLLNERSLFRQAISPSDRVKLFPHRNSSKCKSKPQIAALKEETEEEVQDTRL
SMILES,"leq: activity of compound with VX-809, % of VX-809 (AUC of equivalent chloride current)",leq: activity relative to VX-809 (AUC of equivalent chloride current)
"C[C@@H](O)c1nnc(CC2CC(NC(=O)c3cc(-c4ccc(F)cc4)no3)C2)s1 (stereo partly drawn) [Example 44, 3-(4-Fluorophenyl)-N-[(1r,3r)-3-([5-[(1R)-1-hydroxyethyl]-1,3,4-thiadiazol-2-yl]methyl)cyclobutyl]-1,2-oxazole-5-carboxamide]",** (** indicates activity ≥200% of VX-809 (1 uM) with compound at 10 uM and VX-809 at 1 uM),–
"O=C(NC1CC(c2nnc(C3COC3)o2)C1)c1cc(-c2ccccc2)no1 (stereo not drawn) [Example 22, N-trans-3-(5-(oxetan-3-yl)-1,3,4-oxadiazol-2-yl)cyclobutyl)-3-phenylisoxazole-5-carboxamide]",* (* indicates activity 100-200% of VX-809 (1 uM) with compound at 10 uM and VX-809 at 1 uM),–
"O=C(NCC1CCCO1)c1cc(-c2ccccc2)co1 (stereo not shown) [Example 9, 4-phenyl-N-((tetrahydrofuran-2-yl)methyl)furan-2-carboxamide]",–,++ (++ indicates activity ≥25% run at 10 uM of VX-809 at 1 uM)
"COCCNC(=O)c1cc(-c2ccccc2)co1 [Example 8, N-(2-methoxyethyl)-4-phenylfuran-2-carboxamide]",–,+ (+ indicates activity 10 to <25% run at 10 uM of VX-809 at 1 uM)
"O=C(NCCCn1ccnc1)c1cc(-c2ccccc2)no1 [Example 4, N-(3-(1H-imidazol-1-yl)propyl)-3-phenylisoxazole-5-carboxamide]",–,+ (+ indicates activity 10 to <25% run at 10 uM of VX-809 at 1 uM)
"C[C@@H](O)c1nnc([C@H]2C[C@H](NC(=O)c3cc(-c4ccc(F)cc4)no3)C2)o1 [Example 36, 3-(4-fluorophenyl)-N-(trans-3-(5-((R)-1-hydroxyethyl)-1,3,4-oxadiazol-2-yl)cyclobutyl)isoxazole-5-carboxamide]",* (* indicates activity 100-200% of VX-809 (1 uM) with compound at 10 uM and VX-809 at 1 uM),–
"C[C@H](O)c1cn(C[C@H]2C[C@@H](NC(=O)c3cc(-c4ccccc4)no3)C2)nn1 [Example 58, 3-Phenyl-N-[(1s,3s)-3-([4-[(1S)-1-hydroxyethyl]-1H-1,2,3-triazol-1-yl]methyl)cyclobutyl]-1,2-oxazole-5-carboxamide]",* (* indicates activity 100-200% of VX-809 (1 uM) with compound at 10 uM and VX-809 at 1 uM),–
"C[C@@H](O)c1nnc(CC2CC(NC(=O)c3cc(-c4ccccc4)no3)C2)s1 (stereo partly drawn) [Example 42, 3-Phenyl-N-[(1r,3r)-3-([5-[(1R)-1-hydroxyethyl]-1,3,4-thiadiazol-2-yl]methyl)cyclobutyl]-1,2-oxazole-5-carboxamide]",* (* indicates activity 100-200% of VX-809 (1 uM) with compound at 10 uM and VX-809 at 1 uM),–
"C[C@@H](O)c1nnc(CC2CC(NC(=O)c3cc(-c4ccc(F)cc4)no3)C2)s1 (stereo partly drawn) [Example 43, 3-(4-Fluorophenyl)-N-[(1s,3s)-3-([5-[(1R)-1-hydroxyethyl]-1,3,4-thiadiazol-2-yl]methyl)cyclobutyl]-1,2-oxazole-5-carboxamide]",** (** indicates activity ≥200% of VX-809 (1 uM) with compound at 10 uM and VX-809 at 1 uM),–
"C[C@@H](O)c1nnc(C[C@H]2C[C@@H](NC(=O)c3cc(-c4cccs4)no3)C2)o1 [Example 45, N-[(1s,3s)-3-([5-[(1R)-1-Hydroxyethyl]-1,3,4-oxadiazol-2-yl]methyl)cyclobutyl]-3-(thiophen-2-yl)-1,2-oxazole-5-carboxamide]",* (* indicates activity 100-200% of VX-809 (1 uM) with compound at 10 uM and VX-809 at 1 uM),–
"O=C(NCCCn1ccnc1)c1cc(-c2ccccc2)co1 [Example 11, N-(3-(1H-imidazol-1-yl)propyl)-4-phenylfuran-2-carboxamide]",–,++ (++ indicates activity ≥25% run at 10 uM of VX-809 at 1 uM)
"O=C(NC1CC1)c1cc(-c2ccccc2)co1 [Example 12, N-cyclopropyl-4-phenylfuran-2-carboxamide]",* (* indicates activity 100-200% of VX-809 (1 uM) with compound at 10 uM and VX-809 at 1 uM),++ (++ indicates activity ≥25% run at 10 uM of VX-809 at 1 uM)
"O=C(NCC1CCCO1)c1cc(-c2ccccc2)no1 (stereo not shown) [Example 2, 3-phenyl-N-((tetrahydrofuran-2-yl)methyl)isoxazole-5-carboxamide]",–,++ (++ indicates activity ≥25% run at 10 uM of VX-809 at 1 uM)
"C[C@@H](O)c1nnc(CC2CC(NC(=O)c3cc(-c4ccccc4)no3)C2)s1 (stereo partly drawn) [Example 41, 3-Phenyl-N-[(1s,3s)-3-([5-[(1R)-1-hydroxyethyl]-1,3,4-thiadiazol-2-yl]methyl)cyclobutyl]-1,2-oxazole-5-carboxamide]",** (** indicates activity ≥200% of VX-809 (1 uM) with compound at 10 uM and VX-809 at 1 uM),–
"O=C(NCCN1CCOCC1)c1cc(-c2ccccc2)co1 [Example 10, N-(2-morpholinoethyl)-4-phenylfuran-2-carboxamide]",–,+ (+ indicates activity 10 to <25% run at 10 uM of VX-809 at 1 uM)
"C[C@H](O)c1cnnn1C[C@H]1C[C@@H](NC(=O)c2cc(-c3ccccc3)no2)C1 [Example 57, 3-Phenyl-N-[(1s,3s)-3-([5-[(1S)-1-hydroxyethyl]-1H-1,2,3-triazol-1-yl]methyl)cyclobutyl]-1,2-oxazole-5-carboxamide]",** (** indicates activity ≥200% of VX-809 (1 uM) with compound at 10 uM and VX-809 at 1 uM),–
"C[C@@H](O)c1nnc(CC2CC(NC(=O)c3cc(-c4ccc(F)cc4)no3)C2)o1 (stereo partly drawn) [Example 40, 3-(4-Fluorophenyl)-N-[(1r,3r)-3-([5-[(1R)-1-hydroxyethyl]-1,3,4-oxadiazol-2-yl]methyl)cyclobutyl]-1,2-oxazole-5-carboxamide]",** (** indicates activity ≥200% of VX-809 (1 uM) with compound at 10 uM and VX-809 at 1 uM),–
"Cn1nccc1CCCNC(=O)c1cc(-c2ccccc2)no1 [Example 7, N-(3-(1-methyl-1H-pyrazol-5-yl)propyl)-3-phenylisoxazole-5-carboxamide]",* (* indicates activity 100-200% of VX-809 (1 uM) with compound at 10 uM and VX-809 at 1 uM),++ (++ indicates activity ≥25% run at 10 uM of VX-809 at 1 uM)
"O=C(N[C@H]1C[C@@H](n2cc(CO)nn2)C1)c1cc(-c2ccccc2)no1 [Example 29, N-(cis-3-(4-(hydroxymethyl)-1H-1,2,3-triazol-1-yl)cyclobutyl)-3-phenylisoxazole-5-carboxamide]",** (** indicates activity ≥200% of VX-809 (1 uM) with compound at 10 uM and VX-809 at 1 uM),–
"C[C@@H](O)c1nnc(CC2CC(NC(=O)c3cc(-c4ccccc4)no3)C2)o1 (stereo partly drawn) [Example 37, N-((1S,3s)-3-((5-((R)-1-hydroxyethyl)-1,3,4-oxadiazol-2-yl)methyl)cyclobutyl)-3-phenylisoxazole-5-carboxamide]",** (** indicates activity ≥200% of VX-809 (1 uM) with compound at 10 uM and VX-809 at 1 uM),–
"C[C@@H](O)c1nnc(C[C@H]2C[C@H](NC(=O)c3cc(-c4cccs4)no3)C2)o1 [Example 46, N-[(1r,3r)-3-([5-[(1R)-1-Hydroxyethyl]-1,3,4-oxadiazol-2-yl]methyl)cyclobutyl]-3-(thiophen-2-yl)-1,2-oxazole-5-carboxamide]",* (* indicates activity 100-200% of VX-809 (1 uM) with compound at 10 uM and VX-809 at 1 uM),–
"CC(OCC(F)(F)F)c1nnc(C2CC(NC(=O)c3cc(-c4ccccc4)no3)C2)o1 (single isomer, unassigned) [Example 15]",* (* indicates activity 100-200% of VX-809 (1 uM) with compound at 10 uM and VX-809 at 1 uM),–
"C[C@@H](OCC1CN(C)C1)c1nnc([C@H]2C[C@H](NC(=O)c3cc(-c4ccccc4)no3)C2)o1 [Example 20, N-(trans-3-(5-((R)-1-((1-methylazetidin-3-yl)methoxy)ethyl)-1,3,4-oxadiazol-2-yl)cyclobutyl)-3-phenylisoxazole-5-carboxamide]",* (* indicates activity 100-200% of VX-809 (1 uM) with compound at 10 uM and VX-809 at 1 uM),–
